These results are taken from patent publication US12649737B2, “Compounds and uses thereof” (Foghorn Therapeutics Inc., priority 2020, dated 2026).

The target in one assay is T1, BRG-1 (Homo sapiens, UniProt P51532).
T1 construct: made in house; host or cells: High Five insect cells
Put plainly: ATPase catalytic activity assay of BRG-1 (ADP-Glo). Conditions: 30 nM BRG-1, 400 μM ATP, 20 nM salmon sperm DNA, 1 hour at room temperature; read-out: BRG1 ATPase: IC50. Type of assay: biochemical. On the procedure: (§1) Example 38. Assay for ATPase Catalytic Activity of BRM and BRG-1
(§2) The ADP-Glo™ kinase assay is performed in two steps once the reaction is complete.
For orientation: In ADP-Glo the light output rises with the ADP produced.

For another assay, the target named is T2, BRM (Homo sapiens, UniProt P51531).
T2 construct: made in house; host or cells: High Five insect cells
T2 sequence (P51531 whole entry): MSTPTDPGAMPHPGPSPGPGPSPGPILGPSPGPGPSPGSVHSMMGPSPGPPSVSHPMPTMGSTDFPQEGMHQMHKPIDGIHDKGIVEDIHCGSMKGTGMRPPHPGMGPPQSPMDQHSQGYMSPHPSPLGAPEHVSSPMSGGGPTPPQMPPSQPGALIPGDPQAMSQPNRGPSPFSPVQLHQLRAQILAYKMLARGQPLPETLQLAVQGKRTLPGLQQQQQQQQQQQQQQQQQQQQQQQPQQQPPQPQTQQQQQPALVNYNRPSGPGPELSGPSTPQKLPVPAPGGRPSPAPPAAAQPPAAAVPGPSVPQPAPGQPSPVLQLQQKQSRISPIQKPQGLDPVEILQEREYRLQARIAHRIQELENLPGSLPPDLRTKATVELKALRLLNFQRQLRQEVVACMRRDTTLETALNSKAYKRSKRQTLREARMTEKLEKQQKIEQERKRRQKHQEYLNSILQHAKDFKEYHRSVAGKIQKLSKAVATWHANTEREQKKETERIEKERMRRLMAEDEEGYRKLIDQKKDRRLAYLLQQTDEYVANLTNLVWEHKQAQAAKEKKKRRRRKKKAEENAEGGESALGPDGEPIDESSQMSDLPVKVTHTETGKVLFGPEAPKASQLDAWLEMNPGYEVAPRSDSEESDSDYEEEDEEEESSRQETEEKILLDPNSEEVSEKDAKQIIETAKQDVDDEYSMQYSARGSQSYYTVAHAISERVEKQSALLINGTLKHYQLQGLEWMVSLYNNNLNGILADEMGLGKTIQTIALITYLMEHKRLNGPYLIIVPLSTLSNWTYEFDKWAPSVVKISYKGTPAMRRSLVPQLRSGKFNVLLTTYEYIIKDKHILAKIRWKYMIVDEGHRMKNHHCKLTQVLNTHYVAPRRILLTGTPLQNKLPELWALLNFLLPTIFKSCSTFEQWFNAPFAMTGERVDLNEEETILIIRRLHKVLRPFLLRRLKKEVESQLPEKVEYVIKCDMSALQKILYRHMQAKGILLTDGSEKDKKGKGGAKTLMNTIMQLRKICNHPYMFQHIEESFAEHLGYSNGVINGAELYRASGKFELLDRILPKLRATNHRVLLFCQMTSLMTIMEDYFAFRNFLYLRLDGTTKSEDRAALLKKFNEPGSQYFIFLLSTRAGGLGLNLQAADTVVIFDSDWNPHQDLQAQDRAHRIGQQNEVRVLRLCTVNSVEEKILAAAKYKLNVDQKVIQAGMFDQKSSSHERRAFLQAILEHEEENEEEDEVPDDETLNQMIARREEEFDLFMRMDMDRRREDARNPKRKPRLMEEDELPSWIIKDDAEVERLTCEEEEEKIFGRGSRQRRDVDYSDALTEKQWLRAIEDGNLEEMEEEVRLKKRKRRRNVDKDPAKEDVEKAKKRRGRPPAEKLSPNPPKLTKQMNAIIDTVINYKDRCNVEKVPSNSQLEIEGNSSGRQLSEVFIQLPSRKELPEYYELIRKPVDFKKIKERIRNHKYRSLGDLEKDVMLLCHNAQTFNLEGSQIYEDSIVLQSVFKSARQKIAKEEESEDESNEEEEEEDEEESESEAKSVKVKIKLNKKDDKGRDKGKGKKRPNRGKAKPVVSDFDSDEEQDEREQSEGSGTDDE
Put plainly: ATPase catalytic activity assay of BRM (ADP-Glo). In kind it is biochemical. Conditions: 30 nM BRM, 400 μM ATP, 20 nM salmon sperm DNA, 1 hour at room temperature. On the procedure:
as §1, §2

T1 sequence (P51532 whole entry): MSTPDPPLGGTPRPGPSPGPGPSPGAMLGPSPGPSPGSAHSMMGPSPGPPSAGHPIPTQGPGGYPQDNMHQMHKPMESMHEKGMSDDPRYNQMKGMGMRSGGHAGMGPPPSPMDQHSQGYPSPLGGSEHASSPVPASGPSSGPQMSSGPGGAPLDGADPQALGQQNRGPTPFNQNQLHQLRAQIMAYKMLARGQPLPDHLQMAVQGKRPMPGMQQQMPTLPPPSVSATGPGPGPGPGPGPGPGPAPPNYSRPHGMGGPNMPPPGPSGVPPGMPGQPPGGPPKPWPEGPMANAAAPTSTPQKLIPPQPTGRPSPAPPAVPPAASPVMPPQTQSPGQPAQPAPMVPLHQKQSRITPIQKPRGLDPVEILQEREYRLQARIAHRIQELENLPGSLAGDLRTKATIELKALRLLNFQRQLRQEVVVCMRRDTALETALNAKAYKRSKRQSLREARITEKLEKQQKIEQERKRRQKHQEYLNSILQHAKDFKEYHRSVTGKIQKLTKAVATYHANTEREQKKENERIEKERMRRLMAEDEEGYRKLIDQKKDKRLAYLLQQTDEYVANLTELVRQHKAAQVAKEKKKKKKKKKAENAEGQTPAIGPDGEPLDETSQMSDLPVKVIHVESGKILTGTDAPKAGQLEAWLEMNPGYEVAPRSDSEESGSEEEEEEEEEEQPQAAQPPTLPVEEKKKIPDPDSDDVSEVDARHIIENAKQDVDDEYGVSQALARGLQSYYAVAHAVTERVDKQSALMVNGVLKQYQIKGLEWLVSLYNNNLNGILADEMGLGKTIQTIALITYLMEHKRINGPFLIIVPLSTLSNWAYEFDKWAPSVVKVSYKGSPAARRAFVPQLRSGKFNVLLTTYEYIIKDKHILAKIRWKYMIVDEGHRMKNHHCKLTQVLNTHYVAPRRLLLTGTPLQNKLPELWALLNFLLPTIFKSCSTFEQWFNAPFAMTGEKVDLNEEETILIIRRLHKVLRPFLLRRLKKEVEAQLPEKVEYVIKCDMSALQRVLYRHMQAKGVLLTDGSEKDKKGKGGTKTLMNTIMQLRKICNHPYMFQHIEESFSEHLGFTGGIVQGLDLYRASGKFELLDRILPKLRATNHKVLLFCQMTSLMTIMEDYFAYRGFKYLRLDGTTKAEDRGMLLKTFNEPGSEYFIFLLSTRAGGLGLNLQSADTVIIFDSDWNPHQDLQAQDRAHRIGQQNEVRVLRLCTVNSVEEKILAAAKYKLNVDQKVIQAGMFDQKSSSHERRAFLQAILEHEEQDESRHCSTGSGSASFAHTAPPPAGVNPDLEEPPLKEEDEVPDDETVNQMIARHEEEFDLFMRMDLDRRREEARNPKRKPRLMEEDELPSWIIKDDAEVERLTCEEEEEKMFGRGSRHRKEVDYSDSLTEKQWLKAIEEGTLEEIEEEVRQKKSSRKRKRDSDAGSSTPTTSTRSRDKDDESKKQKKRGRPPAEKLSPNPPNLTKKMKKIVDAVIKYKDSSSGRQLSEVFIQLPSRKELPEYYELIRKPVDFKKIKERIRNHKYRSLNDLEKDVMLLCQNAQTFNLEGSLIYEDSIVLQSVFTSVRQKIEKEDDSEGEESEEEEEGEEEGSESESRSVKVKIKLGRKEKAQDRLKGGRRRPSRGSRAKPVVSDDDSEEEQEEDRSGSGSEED

As a reminder, the IC50 is the concentration needed to halve the response being measured. Regarding `COC(=O)N1CCC[C@H](c2ccc3nc(CNC(=O)c4ccn(S(C)(=O)=O)c4)[nH]c3c2)C1` [Compound 22, (R)-methyl 3-(2-((1-(methylsulfonyl)-1H-pyrrole-3-carboxamido)methyl)-1H-benzo[d]imidazol-6-yl)piperidine-1-carboxylate], the results for the IC50 on BRG-1 and against BRM were more than 1000 nM and 100 to 1000 nM, respectively.

Turning to `CN1CCOc2ccc(-c3ccc4cnc(CNC(=O)c5ccn(S(C)(=O)=O)c5)cc4n3)cc21` [Compound 69], the IC50 fell in the range of 100 to 1000 nM at BRG-1 and 10 to 100 nM at BRM.

`CS(=O)(=O)n1ccc(C(=O)NCc2cc3nc(-c4ccccc4)sc3cn2)c1` [Compound 73, 1-methylsulfonyl-N-[(2-phenylthiazolo[5,4-c]pyridin-6-yl)methyl]pyrrole-3-carboxamide]: the IC50 on BRG-1 and on BRM was 100 to 1000 nM in each case.

Consider `CS(=O)(=O)n1ccc(C(=O)NCc2nc3ccc(-c4ccc(OC(F)(F)F)cc4)nc3[nH]2)c1` [Compound 28], for which the IC50 at BRG-1 and against BRM was 10 to 100 nM each time.

For the compound `COc1cccc(-c2ccc3nc(CNC(=O)c4cc(C)n(S(C)(=O)=O)c4)[nH]c3c2)c1` [Compound 17], the IC50 at BRG-1 and at BRM was 10 to 100 nM throughout.

For `CC(C)(C)n1ccc(C(=O)NCc2nc3ccc(-c4cc(Cl)cc(C#N)c4)cc3[nH]2)c1` [Compound 30], the IC50 on BRG-1 lay within 100 to 1000 nM; at BRM it was 10 to 100 nM.

On to `CS(=O)(=O)n1ccc(C(=O)NCc2nc3ccc(-c4cccc(N5CCC5)c4)nc3[nH]2)c1` [Compound 10], for which the figures for the IC50 at BRG-1 and against BRM were 100 to 1000 nM and 10 to 100 nM, respectively.

As for `CS(=O)(=O)n1ccc(C(=O)NCc2nc3ccc(-c4cccc(N5CCC(O)CC5)c4)cc3[nH]2)c1` [Compound 8, N-((6-(3-(4-hydroxypiperidin-1-yl)phenyl)-1H-benzo[d]imidazol-2-yl)methyl)-1-(methylsulfonyl)-1H-pyrrole-3-carboxamide], the IC50 at BRG-1 is 100 to 1000 nM; at BRM it was 10 to 100 nM.

`CC(C)(C)n1ccc(C(=O)NCc2nc3ccc(-c4ccc(C5CC5)cc4)cc3[nH]2)c1` [Compound 37]: the IC50 on BRG-1 and at BRM was 100 to 1000 nM throughout.

Consider `COC(=O)N1CCC[C@@H](c2ccc3nc(CNC(=O)c4ccn(S(C)(=O)=O)c4)[nH]c3n2)C1` [Compound 25], for which the IC50 at BRG-1 and against BRM was 100 to 1000 nM throughout.

`C[C@@H](NC(=O)c1ccn(S(C)(=O)=O)c1)c1nc2ccc(-c3cccc(-c4ccncc4)c3)nc2[nH]1` [Compound 5]: the IC50 at BRG-1 and against BRM was 100 to 1000 nM throughout.

For the compound `CS(=O)(=O)n1ccc(C(=O)NCc2cc3nc(-c4ccccc4)ccc3cn2)c1` [Compound 61, 1-(methylsulfonyl)-N-((2-phenyl-1,6-naphthyridin-7-yl)methyl)-1H-pyrrole-3-carboxamide], the IC50 at BRG-1 and at BRM was 100 to 1000 nM in each case.

`CN1CCc2cc(-c3ccc4cnc(CNC(=O)c5ccn(S(C)(=O)=O)c5)cc4n3)ccc21` [Compound 72]: the IC50 on BRG-1 and against BRM was 100 to 1000 nM in each case.

Take `C[C@@H]1CN(c2cccc(-c3ccc4nc(CNC(=O)c5ccn(C(C)(C)C)c5)[nH]c4n3)c2)C[C@H](C)O1` [Compound 19]: the IC50 on BRG-1 and on BRM was 100 to 1000 nM throughout.

In the case of `CC(C)(C)n1ccc(C(=O)NCc2nc3ccc(-c4ccc(-n5cccn5)cc4)cc3[nH]2)c1` [Compound 54], the IC50 at BRG-1 and against BRM was 100 to 1000 nM in each case.

In the case of `COc1cccc(-c2ccc3nc(CNC(=O)c4ccn(C(C)(C)C)c4)[nH]c3c2)c1` [Compound 16], the IC50 on BRG-1 and against BRM was 100 to 1000 nM each time.

On to `CC(C)(C)n1ccc(C(=O)NCc2nc3ccc(-c4ccc5c(c4)OCC5)cc3[nH]2)c1` [Compound 45], for which the IC50 on BRG-1 lay within 100 to 1000 nM; against BRM, 10 to 100 nM.

In the case of `Cn1ccc2cc(-c3ccc4nc(CNC(=O)c5ccn(C(C)(C)C)c5)[nH]c4c3)ccc21` [Compound 32], the half-inhibitory concentration (IC50) on BRG-1 and against BRM was 10 to 100 nM throughout.

Regarding `C[C@@H]1CN(c2cccc(-c3ccc4cnc(CNC(=O)c5ccn(C(C)(C)C)n5)cc4n3)n2)C[C@H](C)O1` [Compound 78], the results for the IC50 at BRG-1 and against BRM were 100 to 1000 nM and 10 to 100 nM, respectively.

With `Cc1nc2cc(-c3ccc4nc(CNC(=O)c5ccn(C(C)(C)C)c5)[nH]c4c3)ccc2s1` [Compound 50], the IC50 at BRG-1 is 100 to 1000 nM; against BRM, 10 to 100 nM.

Take `CC(C)(C)n1ccc(C(=O)NCc2nc3ccc(-c4cccc5ccncc45)cc3[nH]2)c1` [Compound 51]: the IC50 lay within 100 to 1000 nM on BRG-1 and 10 to 100 nM against BRM.

As to `COc1ccccc1-c1ccc2cnc(CNC(=O)c3ccn(S(C)(=O)=O)c3)cc2n1` [Compound 75], the values for the IC50 on BRG-1 and at BRM were 100 to 1000 nM and 10 to 100 nM, respectively.

On to `Cc1ccc2cc(-c3ccc4nc(CNC(=O)c5ccn(C(C)(C)C)c5)[nH]c4c3)ccc2n1` [Compound 57], for which the IC50 on BRG-1 and against BRM was 10 to 100 nM in each case.

In the case of `CS(=O)(=O)n1ccc(C(=O)NCc2nc3ccc(-c4cccc(N5CCC(O)CC5)c4)nc3[nH]2)c1` [Compound 12, N-((5-(3-(4-hydroxypiperidin-1-yl)phenyl)-3H-imidazo[4,5-b]pyridin-2-yl)methyl)-1-(methylsulfonyl)-1H-pyrrole-3-carboxamide], the IC50 at BRG-1 and at BRM was 100 to 1000 nM throughout.

As to `CN(C)c1ncc(-c2ccc3nc(CNC(=O)c4ccn(C(C)(C)C)c4)[nH]c3c2)cn1` [Compound 56], the IC50 at BRG-1 and on BRM was 10 to 100 nM each time.

For the compound `Cn1cc(-c2cccc(-c3ccc4cnc(CNC(=O)c5ccn(S(C)(=O)=O)c5)cc4n3)c2)cn1` [Compound 71], the values for the IC50 at BRG-1 and against BRM were 100 to 1000 nM and 10 to 100 nM, respectively.

For the compound `CC(C)(C)n1ccc(C(=O)NCc2nc3ccc(-c4ccc(C#N)cc4)cc3[nH]2)c1` [Compound 43], the IC50 at BRG-1 and on BRM was 100 to 1000 nM each time.

Consider `CN1Cc2ccc(-c3ccc4nc(CNC(=O)c5ccn(C(C)(C)C)c5)[nH]c4c3)cc2C1=O` [Compound 31], for which the IC50 at BRG-1 and on BRM was 10 to 100 nM throughout.

Consider `C[C@@H]1CN(c2cccc(-c3ccc4nc(CNC(=O)c5ccn(C(C)(C)C)c5)[nH]c4c3)c2)C[C@H](C)O1` [Compound 15], for which the IC50 at BRG-1 and at BRM was 100 to 1000 nM in each case.

As for `CC(C)(C)n1ccc(C(=O)NCc2nc3ccc(-c4ccc(N5CCOCC5)nc4)cc3[nH]2)c1` [Compound 55], the IC50 on BRG-1 and at BRM was 100 to 1000 nM each time.

As to `CC(C)(C)n1ccc(C(=O)NCc2nc3ccc(-c4ccc5ncccc5c4)cc3[nH]2)c1` [Compound 34], the IC50 at BRG-1 and against BRM was 10 to 100 nM in each case.

As to `CS(=O)(=O)n1ccc(C(=O)NCc2cc3nc(-c4cncc(C5CC5)n4)ccc3cn2)c1` [Compound 80, N-[[2-(6-cyclopropylpyrazin-2-yl)-1,6-naphthyridin-7-yl]methyl]-1-methylsulfonyl-pyrrole-3-carboxamide], the IC50 was in the range of 100 to 1000 nM on BRG-1 and 10 to 100 nM against BRM.

Take `CC(C)(C)n1ccc(C(=O)NCc2nc3ccc(-c4ccc(CC#N)cc4)cc3[nH]2)c1` [Compound 53]: the IC50 at BRG-1 and at BRM was 100 to 1000 nM throughout.

On to `COc1ccc2cc(-c3ccc4nc(CNC(=O)c5ccn(C(C)(C)C)c5)[nH]c4c3)ccc2c1` [Compound 44], for which the half-maximal inhibitory concentration (IC50) at BRG-1 and on BRM was 10 to 100 nM in each case.
